# Laboratory results: patent US20170071976A1, “PHARMACEUTICAL SOLUTION HAVING ANTI-TUMOR EFFECT-ENHANCING AND TOXICITY-REDUCING EFFECT, AND PHARMACEUTICAL COMPOSITION COMPRISING SAME” (priority 2014, published 2017)
# Read-outs that look alike come from different tables or passages of the source. Marks after values point to notes of the source that are not given here.
# Columns and labels:
# [1] = system: liver cancer H22 ascites tumor; assay: Liver cancer H22 ascites tumor mice, intraperitoneal retention lavage with deuterium oxide and cisplatin (room temperature or 42±1° C.); type: in vivo, Kunming mice; settings: cisplatin 0.6 mg/kg + Ringer's solution
# Method: Animal: 4 to 5 week-aged male Kunming mice, provided by Shanghai SIPPR-BK Laboratory Animal Co. Ltd. Cell lines: […] CO., LTD. […] Test drugs: cisplatin, and the Ringer's deuterium oxide solution as prepared in Example 6. Grouping and dosing: the mouse model was established 7 to 8 days after inoculation, and the mice were randomized with 18 animals/group. Cisplatin were dissolved in a 42±1° C. Ringer's deuterium oxide solution, and used to lavage the peritoneal cavity of the tumor-bearing mice. 1). Blank control group (normal Ringer's solution, 10 ml/kg, room temperature); 2). Normal chemo group (cisplatin 0.6 mg/kg+normal Ringer's solution, 10 ml/kg, room temperature); 3). […] Room temperature high-dose deuterium oxide+cisplatin group (Ringer's deuterium oxide solution, 40 ml/kg+cisplatin 0.6 mg/kg); 6). Hyperthermic low-dose deuterium oxide+cisplatin group (42±1° C. […] Hyperthermic mid-dose deuterium oxide+cisplatin group (42±1° C. […] Hyperthermic high-dose deuterium oxide+cisplatin group (42±1° C. Ringer's deuterium oxide solution, 40 ml/kg+cisplatin 0.6 mg/kg); […] The lavage was performed once another day for 5 successive times. […] 4. […] Statistics: the same as Example 18.
# [2] = system: xenograft tumors from human lung cancer A549 cells; assay: A549 xenograft in nude mice, intravenous deuterium oxide in combination with gemcitabine; settings: Paclitaxel 8 mg/kg × 11, tail vein; for Tumor weight: control 2.92 ± 0.27; for Inhibition (%): tumor weight
# Method: (§1) Animal: 6 to 7 week-aged female BALB/c nude mice, each weighing 18 to 20 g, provided by Shanghai SLAC Laboratory Animal Co. Ltd.
# Test drugs: gemcitabine (GEM) and the sodium chloride deuterium oxide solution prepared in Example 1.
# (§2) Tumor cells were resuscitated and inoculated, and sterile sodium chloride physiological solution was added thereto to make a cell suspension which was subcutaneously inoculated into the upper right axillary fossa of animals. 5×10^6 tumor cells were inoculated into each animal.
# The diameter of xenograft tumors in the nude mice was measured with a vernier caliper, and 10 days after inoculation, when tumors grew to 100 to 110 cm^3, the animals were randomized with 8 mice per group. Meanwhile drugs were administered by injection into tail vein, once every three days, for 21 successive days. By measuring the tumor diameter, the anti-tumor efficacy of test samples was dynamically observed. Meanwhile the body weight of animals was also recorded to observe the toxicity of the test samples. 21 days after administration, the nude mice were sacrificed, and tumors were harvested by surgery, weighed and photographed.
# 6) Test group 2: gemcitabine (10 mg/kg) diluted in the sodium chloride deuterium oxide solution (10 ml/kg). 7) Test group 3: gemcitabine (10 ml/kg) diluted in the sodium chloride deuterium oxide solution (20 ml/kg).
# [3] = system: xenograft tumors from human breast cancer MCF-7 cells; assay: MCF-7 xenograft in nude mice, intravenous deuterium oxide in combination with gemcitabine; type: in vivo, BALB/c nude mice; settings: Paclitaxel 8 mg/kg × 11, tail vein
# Method: Ltd. Cell lines: human breast cancer MCF-7 cells were provided by NANJING […] BIOTECH. CO., LTD. […] Bone marrow nucleated cells were isolated by a routine method, DNA was extracted from the cells, the OD value was measured in a UV-260 spectrometer as a representative of the DNA content, and inhibition of DNA synthesis by the test samples was observed. The test used 7 groups in total, with 8 animals per group. […] Statistics: the same as Example 21.
# [4] = system: xenograft tumors from human ovarian cancer SKOV3 cells; assay: SKOV3 xenograft in nude mice, intravenous deuterium oxide in combination with paclitaxel; type: in vivo, BALB/c nude mice; settings: Paclitaxel 8 mg/kg × 11, tail vein
# Source text: 3. […] 4. Statistics: the same as Example 21.
# [5] = system: xenograft tumors from human colon cancer HCT-116 cells; assay: HCT-116 xenograft in nude mice, intravenous deuterium oxide in combination with 5-fluorouracil; type: in vivo, BALB/c nude mice
# Method: Ltd. Cell lines: human colon cancer cells HCT-116 were provided by NANJING […] BIOTECH. CO., LTD. […] Bone marrow nucleated cells were isolated by a routine method, DNA was extracted from the cells, the OD value was measured in a UV-260 spectrometer as a representative of the DNA content, and inhibition of DNA synthesis by the test samples was observed. The test used 7 groups in total, with 8 animals per group. […] Tumor volume (TV) was calculated by the following equation: […] From the measurements, relative tumor volume (RTV) was calculated by the following equation: RTV=Vt/V0 Relative tumor growth ratio T/C (%) was calculated by the following equation: Criteria of efficacy evaluation: […] T/C %≦40% and statistically P<0.05, efficacious. Inhibition of tumor growth (%) was calculated by the following equation: Criteria of efficacy evaluation: […] The mean value was expressed in X±SD. Inter-group analysis was statistically performed with t test. The results were statistically analyzed using SPSS (Statistical Package for the Social Science) 17.0.
# [6] = system: xenograft tumors from human bladder cancer 5637 cells; settings: Thiotepa 0.2 mg/kg × 11, tail vein; for Inhibition (%): tumor weight
# Source text: Inhibition of growth of xenograft tumors from human bladder cancer 5637 cells in nude mice by intravenous injection of deuterium oxide in combination with thiotepa
# as §1
# Cell lines: human bladder cancer 5637 cells were provided by NANJING KEYGEN BIOTECH. CO., LTD.
# Test drugs: thiotepa and the sodium chloride deuterium oxide solution, prepared in Example 1.
# as §2
# The diameter of xenograft tumors in the nude mice was measured with a vernier caliper, and 10 days after inoculation, when tumors grew to 100 to 110 cm^3, the animals were randomized. Meanwhile drugs were administered by injection into tail vein, once every three days, for 21 successive days. The body weight of animals was also recorded to observe the toxicity of the test samples. 21 days after administration, the nude mice were sacrificed, and tumors were harvested by surgery, and weighed.
# The test used 5 groups in total, with 5 animals per group.
# 1) Control group: sodium chloride physiological solution, 10 ml/kg; 2) Thiotepa positive control group: thiotepa (0.2 mg/kg) diluted in sodium chloride physiological solution; 3) Test group 1: thiotepa (0.2 mg/kg) diluted in the sodium chloride deuterium oxide solution (1 ml/kg); 4) Test group 2: thiotepa (0.2 mg/kg) diluted in the sodium chloride deuterium oxide solution (10 ml/kg); 5) Test group 3: thiotepa (0.2 mg/kg) diluted in the sodium chloride deuterium oxide solution (25 ml/kg).
# [7] = system: sarcoma S180 (ascites type); assay: Sarcoma S180 (ascites type) mice, 42±1° C. intraperitoneal retention lavage with deuterium oxide, oxaliplatin and mitomycin; type: in vivo, Kunming mice; settings: oxaliplatin 0.8 mg/kg + glucose injection 5 ml/kg
# Method: Inhibition of sarcoma S180 (ascites type) in tumor-bearing mice by 42±1° C. hyperthermic intraperitoneal retention lavage using deuterium oxide in combination with oxaliplatin and using deuterium oxide in combination with oxaliplatin and mitomycin.
# Cell lines: sarcoma S180 (ascites type) cell line was provided by NANJING KEYGEN BIOTECH. CO., LTD.
# Modeling: 0.2 ml suspension of sarcoma S180 cells containing 1×10^7 cells/ml was inoculated into the peritoneal cavity of mice.
# Test drugs: oxaliplatin, mitomycin, and the glucose deuterium oxide solution as prepared in Example 2.
# Grouping and dosing: the mouse model was established 7 to 8 days after inoculation, and the mice were randomized with 12 animals/group.
# Oxaliplatin and mitomycin were dissolved in a 42±1° C. glucose deuterium oxide solution, and used to lavage the peritoneal cavity of the tumor-bearing mice.
# Blank control group (5% glucose injection, 5 ml/kg); 2). Chemo group (oxaliplatin 0.8 mg/kg+5% glucose injection, 5 ml/kg); 3). Low-dose deuterium oxide+oxaliplatin group (5% glucose deuterium oxide solution, 5 ml/kg+oxaliplatin 0.8 mg/kg); 4). Mid-dose deuterium oxide+oxaliplatin group (5% glucose deuterium oxide solution, 20 ml/kg+oxaliplatin 0.8 mg/kg); 5). High-dose deuterium oxide+oxaliplatin group (5% glucose deuterium oxide solution, 40 ml/kg+oxaliplatin 0.8 mg/kg); 6). Low-dose deuterium oxide+oxaliplatin+mitomycin group (42±1° C. 5% glucose deuterium oxide solution, 5 ml/kg+oxaliplatin 0.8 mg/kg+mitomycin 0.4 mg/kg); 7). […]
# The peritoneal cavity was lavaged with the 42±1° C. glucose deuterium oxide solution in combination with the above composition, which were retained for 10 min in the peritoneal cavity after being introduced, which was repeated for 3 times. […] 24 hours after the administration of drugs was completed (on day 11), 4 mice from each group were sacrificed, the volume of ascitic fluid was measured, and bodies of the mice were dissected to observe the peritoneal organs and metastasis to lung. […]
smiles,measurement,setting,value
N.N.[Cl][Pt][Cl] [cisplatin],T/C(%),"[1]; room temperature, i.p. lavage x 5",137.1%
same,MST,"[1]; room temperature, i.p. lavage x 5, control 13.2 ± 1.9",18.1 ± 3.2 days
same,Ascitic fluid,"[1]; day 11, RT, control 14.85 ± 2.56",7.30 ± 2.32 mL
"CC(=O)O[C@H]1C(=O)[C@@]2(C)[C@H]([C@H](OC(=O)c3ccccc3)[C@]3(O)C[C@H](OC(=O)[C@H](O)[C@@H](NC(=O)c4ccccc4)c4ccccc4)C(C)=C1C3(C)C)[C@]1(OC(C)=O)CO[C@@H]1C[C@@H]2O [Paclitaxel, paclitaxel]",Body weight (g) Initial,[2],18.4 g
same,Tumor weight,[2],0.94 ± 0.25 g
same,Tumor weight,[2]; listed as paclitaxel,0.94 ± 0.25 g
same,"Body weight (g) End, given as change",[2]; control +1.4,+0.9 g
same,Inhibition (%),[2],67.97* %
same,Inhibition (%),[2]; listed as paclitaxel,67.97%
same,Body weight (g) Initial,[3],18.3 g
same,Bone marrow DNA content (OD),[3]; control 0.931 ± 0.2011,0.881 ± 0.2502 OD
same,Tumor weight,[3]; control 4.07 ± 0.76,1.59 ± 0.40 g
same,"Body weight (g) End, given as change",[3]; control +3.3,+1.0 g
same,Inhibition (%),[3]; tumor weight,60.93%*
same,Tumor weight,[4]; control 3.22 ± 1.59,2.07 ± 1.06 g
same,"Body weight (g) End, given as change",[4]; control +4.0,+2.8 g
same,Inhibition (%),[4]; tumor weight,35.7%
same,Body weight (g) Initial,"[5]; Paclitaxel 8 mg/kg × 11, tail vein",18.4 g
same,Bone marrow DNA content (OD),"[5]; Paclitaxel 8 mg/kg × 11, tail vein, control 0.950 ± 0.2711",0.841 ± 0.3014 OD
same,Tumor weight,"[5]; Paclitaxel 8 mg/kg × 11, tail vein, control 2.92 ± 0.27",0.94 ± 0.25 g
same,"Body weight (g) End, given as change","[5]; Paclitaxel 8 mg/kg × 11, tail vein, control +0.4",-1.2 g
same,Body weight (g) Initial,"[5]; Paclitaxel 8 mg/kg × 11, tail vein, listed as paclitaxel",18.4 ± 0.5 g
same,body weight at end,[5]; high-dose paclitaxel positive control,16.8 ± 0.9 g
same,Inhibition (%),"[5]; tumor weight, Paclitaxel 8 mg/kg × 11, tail vein",67.80%*
"S=P(N1CC1)(N1CC1)N1CC1 [Thiotepa, thiotepa]",Body weight (g) Initial,[6],20.6 g
same,Tumor weight,[6]; control 2.87 ± 1.11,1.75 ± 1.06 g
same,"Body weight (g) End, given as change",[6]; control +3.1,+2.6 g
same,Inhibition (%),[6],39.0%
same,Inhibition (%),[6]; listed as thiotepa,39%
O=C1[O][Pt]2([NH][C@@H]3CCCC[C@H]3[NH]2)[O]C1=O [oxaliplatin],Ascitic fluid,"[7]; day 11, control 16.5 ± 4.3",8.7 ± 1.9 mL
same,T/C(%),[7]; i.p. lavage x 5,177.6%
same,MST,"[7]; i.p. lavage x 5, control 12.2 ± 3.0",21.7 ± 2.8 days
